Experimental data from patent EP4685228A1, “MEDIUM COMPOSITION FOR PROMOTING MUSCLE CELL DIFFERENTIATION COMPRISING QUERCETIN AS ACTIVE INGREDIENT” (Industry Academic Cooperation Foundation of Yeungnam …, priority 2023, dated 2024).

How the values were obtained:
Type in all cases: cell-based
[1] = tested on: Mouse myoblast cell line (C2C12); assay: muscle cell proliferation (microscope, MTS analysis); conditions: various concentrations, cultured for 4 days, FIGS. 3 and 4
Protocol: (§1) Mouse myoblast cell line (C2C12) used was purchased from American Type Culture Collection (ATCC). Muscle stem cells were collected from leg muscles of cows, pigs, and chickens, minced, and reacted with 1% Pronase enzyme at 37°C for 2 hours, followed by centrifugation at 1,000 g for 3 minutes. After centrifugation, the supernatant was removed, and the tissue was suspended in Dulbecco's Modified Eagle's Medium (DMEM) supplemented with 1% penicillin/streptomycin (hereinafter referred to as P/S) and 10% fetal bovine serum (hereinafter referred to as FBS), and then the tissue and cells were separated through a 100 µm filter. The separated cells were centrifuged at 1,000 g for 5 minutes, the supernatant was removed, and the cells were suspended in Ham's F10 growth medium containing 1% P/S, 20% FBS, and 5 ng/mL fibroblast growth factor 2 (FGF2), after which cells were transferred to a cell culture dish and cultured at 37°C in the presence of 5% CO2.
(§2) To identify the effect of quercetin on muscle stem cell proliferation, myoblasts and muscle stem cells being cultured in proliferation medium (Ham's F10 containing 1% P/S, 20% FBS, and 5 ng/mL FGF2) were treated with various concentrations of quercetin and cultured for 4 days. To compare proliferation rates, MTS analysis was performed. Myoblasts and muscle stem cells were cultured in a proliferation medium for 4 days, and after removing all of the medium, a culture medium in which proliferation medium and MTS reagent are mixed in a ratio of 8:2 was treated to the cells, followed by a reaction for 1 hour. The reacted culture medium was transferred to a 96-well microplate in a volume of 100 µL, and the absorbance of the culture medium contained in each well was measured at 490 nm using a microplate.
(§3) According to the Experimental Example 2, in order to identify the effect of quercetin on muscle cell proliferation, quercetin was added at various concentrations during the proliferation culture of myoblasts and muscle stem cells, and after culturing for 4 days, observation was made under a microscope, followed by MTS analysis for comparison of the proliferation rate.

bovine muscle stem cell [2] = assay: as above; conditions: various concentrations, cultured for 4 days, FIGS. 3 and 4
Protocol: as §1, §2, §3

chicken muscle stem cell [3] = assay: as above; conditions: various concentrations, cultured for 4 days, FIGS. 3 and 4
Protocol: as §1, §2, §3

porcine muscle stem cell [4] = assay: as above; conditions: various concentrations, cultured for 4 days, FIGS. 3 and 4
Protocol: as §1, §2, §3

[5] = tested on: Mouse myoblast cell line (C2C12); assay: muscle cell differentiation (microscope, creatine kinase activity)
bovine muscle stem cell [6] = assay: as above; conditions: 4 days
Protocol: as §1
(§4) To determine the effect of quercetin on muscle stem cell differentiation, myoblasts and muscle stem cells being differentiated were treated with different concentrations of quercetin in differentiation medium ([…]) and cultured for 4 days. To compare differentiation rates, creatine kinase activity was analyzed. Myoblasts and muscle stem cells were cultured in differentiation medium for 4 days, then all media were removed, followed by washing with phosphate buffer saline (PBS), 200 µL of new saline was added, and the cells were scraped and collected. Afterwards, the cells were disrupted through sonication, and the supernatant was separated through centrifugation. For analysis of creatine kinase activity, a mixture (100 µL of buffer, 10 µL of substrate, and 1 µL of enzyme) was prepared, and 100 µL of the mixture was treated to 10 µL of the supernatant. Afterwards, the absorbance at 340 nm was measured at 20 and 25 minutes after the start of the reaction using a microplate reader, and the value of creatine kinase activity (U/L) was calculated using the following Equation 1. [formula]
(§5) According to the Experimental Example 2, in order to identify the effect of quercetin on muscle cell differentiation, quercetin was added at various concentrations during differentiation culture of myoblasts and muscle stem cells, and after culturing for 4 days, observation was made under a microscope, followed by analysis of creatine kinase activity to compare the differentiation rate.

chicken muscle stem cell [7] = assay: as above; conditions: 4 days
Protocol: as §1, §4, §5

porcine muscle stem cell [8] = assay: as above; conditions: 4 days
Protocol: as §1, §4, §5

[9] = tested on: muscle differentiation-related factors (MYOD, MYOG, and MYH); assay: gene and protein expression of muscle differentiation-related factors (real-time PCR, Western blot); conditions: 10 nM quercetin, FIG. 7
Protocol: 1 mL of TRIzol (TRIzol™) reagent was added to the cultured cells, and the cells were crushed. 200 µLof chloroform was added to the crushed cells, and centrifugation was performed at 12,000 rpm for 10 minutes. After centrifugation, the upper clear water layer was transferred to a new tube, followed by addition of 500 µLof isopropanol. Afterwards, the mixture was mixed sufficiently and centrifuged at 12,000 rpm for 10 minutes. Thereafter, all supernatants except the RNA pellet were removed, and 1 mL of 70% ethanol was added, followed by washing. Afterwards, all ethanol was removed, and the RNA pellet was dissolved in distilled water containing diethylpyrocarbonate (hereinafter referred to as DEPC). The obtained RNA was quantified using a spectrophotometer, and then 2 µg of total RNA was reacted with reverse transcriptase to synthesize cDNA.
To identify an effect of quercetin on gene expression of muscle differentiation-related factors [myoblast determination protein 1 (hereinafter referred to as MYOD), myogenin (hereinafter referred to as MYOG), and myosin heavy chain (hereinafter referred to as MYH)], real-time PCR was performed. Synthesized cDNA and primers designed using NCBI's primer blast tool; and reagents containing SYBR green fluorescent substance were mixed. Real-time PCR was analyzed via the 7500 real-time PCR from Applied Biosystems.
To determine the effect of quercetin on the protein expression of muscle differentiation-related factors (MYOD, MYOG, and MYH), Western blot was performed. All media of cells being cultured were removed and washed with saline solution. A mixture containing RIPA buffer and 1% protease inhibitor was added to the cells and scraped. After centrifugation at 12,000 rpm for 10 minutes, the supernatant was recovered and quantified using a spectrophotometer. 60 µg of the extracted protein was electrophoresed on a 10% acrylamide gel and transferred to a polyvinylidene fluoride (PVDF) membrane (Milipore). Blocking was performed for 1 hour in tris-buffered saline (TBS) buffer containing 3% skim milk and 1% surfactant (tween-20), and the primary antibody was added. After reacting for 16 hours at 4°C, washing was performed three times for 10 minutes in TBS buffer containing 1% surfactant (Tween-20), followed by a reaction with the secondary antibody for 1 hour at room temperature. Afterwards, washing was performed three times for 10 minutes in TBS buffer containing 1% surfactant (tween-20), followed by development after adding Super Signal West Pico Chemiluminescent Substrate.
According to the above Experimental Example 4, to identify the effect of quercetin on the expression of factors related to muscle differentiation, 10 nM quercetin was added to the process of differentiating myoblasts and muscle stem cells, and gene and protein expression of the factors was analyzed.

[10] = 10 nM and 100 nM treatment groups, FIG. 5

## O=c1c(O)c(-c2ccc(O)c(O)c2)oc2cc(O)cc(O)c12 [quercetin]
[1]
  proliferation rate: no significant change
Bovine muscle stem cell [2]
  proliferation rate: no significant change
Chicken muscle stem cell [3]
  proliferation rate: no significant change
Porcine muscle stem cell [4]
  proliferation rate: no significant change
[5]; mouse myoblast, 10 nM and 100 nM treatment groups, 4 days, FIG. 5
  diameter of myotubes: increased
[5]; mouse myoblast, 10 nM and 100 nM, 4 days, FIG. 6
  creatine kinase activity: significantly increased
[5]; mouse myoblasts, differentiation medium, quercetin 10 nM, antioxidant supplement diluted 1,000-fold, FIG. 8B
  creatine kinase activity increase compared to the control group (Con): 17%
Bovine muscle stem cell [6]; [10]
  diameter of myotubes: increased
Bovine muscle stem cell [6]; 10 nM and 100 nM, FIG. 6
  creatine kinase activity: significantly increased
Chicken muscle stem cell [7]; [10]
  diameter of myotubes: increased
Chicken muscle stem cell [7]; 10 nM and 100 nM, FIG. 6
  creatine kinase activity: significantly increased
Porcine muscle stem cell [8]; [10]
  diameter of myotubes: increased
Porcine muscle stem cell [8]; 10 nM and 100 nM, FIG. 6
  creatine kinase activity: significantly increased
[9]; bovine muscle stem cells
  MYH expression: significantly increased
  MYOD expression: significantly increased
  MYOG expression: significantly increased
[9]; chicken muscle stem cells
  MYH expression: significantly increased
  MYOG expression: significantly increased
[9]; mouse myoblasts
  MYH expression: significantly increased
  MYOD expression: significantly increased
  MYOG expression: significantly increased
[9]; porcine muscle stem cells
  MYH expression: significantly increased
  MYOD expression: significantly increased
  MYOG expression: significantly increased
